In ChEMBL document CHEMBL6120936, “Autophagy modulation in cancer therapy: Challenges coexist with opportunities” (Eur J Med Chem, 2024):
Blank lines part the entries; values can stand above or below the compound they belong to.

Legend:
[1] = target: T1, Serine/threonine-protein kinase ULK2 (Homo sapiens, UniProt Q8IYT8); assay: Inhibition of ULK2 (unknown origin)
T1 sequence (Q8IYT8 whole entry): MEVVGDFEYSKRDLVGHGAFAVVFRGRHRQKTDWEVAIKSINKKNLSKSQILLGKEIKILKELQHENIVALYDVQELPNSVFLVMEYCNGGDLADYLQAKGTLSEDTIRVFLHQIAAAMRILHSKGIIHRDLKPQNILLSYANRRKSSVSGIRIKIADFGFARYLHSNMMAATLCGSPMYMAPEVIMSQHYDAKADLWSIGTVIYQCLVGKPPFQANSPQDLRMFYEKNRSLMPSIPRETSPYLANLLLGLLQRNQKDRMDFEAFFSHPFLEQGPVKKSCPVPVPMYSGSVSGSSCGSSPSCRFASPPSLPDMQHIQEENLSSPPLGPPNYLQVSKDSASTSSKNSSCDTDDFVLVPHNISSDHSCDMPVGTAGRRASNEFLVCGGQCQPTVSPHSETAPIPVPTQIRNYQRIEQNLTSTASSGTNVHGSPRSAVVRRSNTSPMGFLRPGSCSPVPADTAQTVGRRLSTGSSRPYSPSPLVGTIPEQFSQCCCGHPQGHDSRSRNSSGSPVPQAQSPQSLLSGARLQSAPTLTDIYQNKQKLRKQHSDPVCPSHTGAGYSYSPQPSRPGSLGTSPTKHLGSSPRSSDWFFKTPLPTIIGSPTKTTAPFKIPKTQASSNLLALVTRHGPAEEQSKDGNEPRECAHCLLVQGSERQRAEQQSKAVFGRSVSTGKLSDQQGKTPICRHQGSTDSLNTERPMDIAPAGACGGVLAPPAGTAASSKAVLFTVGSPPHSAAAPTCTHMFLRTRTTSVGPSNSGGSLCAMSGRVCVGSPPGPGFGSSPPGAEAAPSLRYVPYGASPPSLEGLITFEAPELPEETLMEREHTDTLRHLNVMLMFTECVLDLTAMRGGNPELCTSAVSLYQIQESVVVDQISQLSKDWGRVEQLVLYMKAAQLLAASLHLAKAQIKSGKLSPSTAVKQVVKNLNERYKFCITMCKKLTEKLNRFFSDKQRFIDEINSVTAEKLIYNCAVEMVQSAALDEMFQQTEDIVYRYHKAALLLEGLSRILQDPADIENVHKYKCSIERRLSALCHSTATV

[2] = Binding affinity to AMPK (unknown origin) assessed as inhibition constant; set-up: species or system Homo sapiens
[3] = Agonist activity at AMPK (unknown origin); set-up: species or system Homo sapiens
[4] = target: Phosphatidylinositol 4,5-bisphosphate 3-kinase catalytic subunit gamma isoform (Homo sapiens, UniProt P48736); assay: Inhibition of PI3K p120gamma (unknown origin)
[5] = target: T2, Serine/threonine-protein kinase ULK1 (Homo sapiens, UniProt O75385); assay: Agonist activity at ULK1 (unknown origin)
T2 sequence (O75385 whole entry): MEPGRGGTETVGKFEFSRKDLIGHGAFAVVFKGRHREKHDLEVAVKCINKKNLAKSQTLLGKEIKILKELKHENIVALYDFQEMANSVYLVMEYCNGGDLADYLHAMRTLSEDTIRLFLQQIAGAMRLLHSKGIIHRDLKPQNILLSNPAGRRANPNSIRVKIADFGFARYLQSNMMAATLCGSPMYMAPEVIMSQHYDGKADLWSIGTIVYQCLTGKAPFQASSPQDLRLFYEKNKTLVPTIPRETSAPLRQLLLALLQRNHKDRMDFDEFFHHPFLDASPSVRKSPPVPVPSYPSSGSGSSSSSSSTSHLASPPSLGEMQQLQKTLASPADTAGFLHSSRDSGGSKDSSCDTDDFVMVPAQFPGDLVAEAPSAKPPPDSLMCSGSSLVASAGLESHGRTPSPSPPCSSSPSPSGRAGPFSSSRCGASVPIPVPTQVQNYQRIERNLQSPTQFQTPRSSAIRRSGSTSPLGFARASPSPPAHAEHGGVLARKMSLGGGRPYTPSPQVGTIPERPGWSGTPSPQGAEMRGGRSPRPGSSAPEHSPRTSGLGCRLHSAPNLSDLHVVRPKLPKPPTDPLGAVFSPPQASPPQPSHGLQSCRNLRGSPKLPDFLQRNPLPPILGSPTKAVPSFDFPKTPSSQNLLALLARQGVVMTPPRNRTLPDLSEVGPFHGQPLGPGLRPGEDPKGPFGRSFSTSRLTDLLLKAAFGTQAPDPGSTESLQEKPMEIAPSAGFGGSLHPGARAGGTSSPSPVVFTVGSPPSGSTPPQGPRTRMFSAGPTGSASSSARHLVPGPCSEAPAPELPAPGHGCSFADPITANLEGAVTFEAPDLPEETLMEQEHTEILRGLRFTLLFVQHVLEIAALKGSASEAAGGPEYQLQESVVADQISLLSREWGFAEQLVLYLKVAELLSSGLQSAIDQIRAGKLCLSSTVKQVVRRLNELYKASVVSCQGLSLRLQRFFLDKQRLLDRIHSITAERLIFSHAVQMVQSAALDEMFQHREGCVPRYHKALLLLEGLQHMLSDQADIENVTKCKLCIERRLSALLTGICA

[6] = target: Phosphatidylinositol 4,5-bisphosphate 3-kinase catalytic subunit alpha isoform (Homo sapiens, UniProt P42336); assay: Inhibition of PI3K-p110alpha (unknown origin) extracted from baculovirus-infected Sf9 cells incubated for 1 hr by microbeta counter analysis
[7] = target: T3, Phosphatidylinositol 4,5-bisphosphate 3-kinase catalytic subunit delta isoform (Homo sapiens, UniProt O00329); assay: Inhibition of PI3Kdelta (unknown origin)
T3 sequence (O00329 whole entry): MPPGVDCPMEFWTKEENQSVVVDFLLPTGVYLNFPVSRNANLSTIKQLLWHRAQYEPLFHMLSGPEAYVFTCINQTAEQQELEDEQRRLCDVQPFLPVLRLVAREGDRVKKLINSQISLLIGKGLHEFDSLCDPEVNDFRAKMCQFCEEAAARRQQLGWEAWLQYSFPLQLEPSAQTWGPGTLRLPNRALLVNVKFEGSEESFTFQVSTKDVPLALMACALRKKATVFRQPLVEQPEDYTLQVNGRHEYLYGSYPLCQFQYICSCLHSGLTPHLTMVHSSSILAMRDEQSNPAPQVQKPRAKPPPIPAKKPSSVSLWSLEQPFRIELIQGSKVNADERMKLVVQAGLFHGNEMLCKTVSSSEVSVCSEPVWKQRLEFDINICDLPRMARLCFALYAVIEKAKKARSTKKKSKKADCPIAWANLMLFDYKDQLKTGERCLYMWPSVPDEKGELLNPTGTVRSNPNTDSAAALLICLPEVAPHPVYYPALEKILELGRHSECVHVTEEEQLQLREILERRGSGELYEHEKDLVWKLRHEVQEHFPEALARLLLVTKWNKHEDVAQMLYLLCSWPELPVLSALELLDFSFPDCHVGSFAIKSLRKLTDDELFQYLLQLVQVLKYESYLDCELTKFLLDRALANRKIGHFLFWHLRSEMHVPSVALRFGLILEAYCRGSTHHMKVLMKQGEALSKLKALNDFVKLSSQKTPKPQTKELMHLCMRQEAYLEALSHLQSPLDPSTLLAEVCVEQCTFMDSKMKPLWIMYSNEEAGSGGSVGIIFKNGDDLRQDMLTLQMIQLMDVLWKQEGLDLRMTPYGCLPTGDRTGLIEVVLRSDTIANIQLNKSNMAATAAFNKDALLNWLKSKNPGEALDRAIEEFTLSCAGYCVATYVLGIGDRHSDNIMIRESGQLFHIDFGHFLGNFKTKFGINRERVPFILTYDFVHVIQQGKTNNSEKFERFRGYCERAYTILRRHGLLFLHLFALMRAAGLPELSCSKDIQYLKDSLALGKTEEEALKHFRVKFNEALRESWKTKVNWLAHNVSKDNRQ

[8] = target: Mitogen-activated protein kinase 3 (Homo sapiens, UniProt P27361); assay: Inhibition of ERK1 (unknown origin)
Sequence of Mitogen-activated protein kinase 3 (P27361 whole entry): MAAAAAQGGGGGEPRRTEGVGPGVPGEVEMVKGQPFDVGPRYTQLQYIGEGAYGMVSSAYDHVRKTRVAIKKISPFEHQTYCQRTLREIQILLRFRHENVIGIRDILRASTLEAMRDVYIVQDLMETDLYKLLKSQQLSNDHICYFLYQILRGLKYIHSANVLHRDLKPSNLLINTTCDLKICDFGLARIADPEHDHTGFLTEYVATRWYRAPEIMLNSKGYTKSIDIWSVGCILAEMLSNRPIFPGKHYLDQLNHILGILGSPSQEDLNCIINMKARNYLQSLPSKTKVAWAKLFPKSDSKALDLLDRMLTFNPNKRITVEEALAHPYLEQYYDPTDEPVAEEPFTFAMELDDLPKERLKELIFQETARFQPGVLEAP

Sequence of Phosphatidylinositol 4,5-bisphosphate 3-kinase catalytic subunit gamma isoform (P48736 whole entry, canonical isoform): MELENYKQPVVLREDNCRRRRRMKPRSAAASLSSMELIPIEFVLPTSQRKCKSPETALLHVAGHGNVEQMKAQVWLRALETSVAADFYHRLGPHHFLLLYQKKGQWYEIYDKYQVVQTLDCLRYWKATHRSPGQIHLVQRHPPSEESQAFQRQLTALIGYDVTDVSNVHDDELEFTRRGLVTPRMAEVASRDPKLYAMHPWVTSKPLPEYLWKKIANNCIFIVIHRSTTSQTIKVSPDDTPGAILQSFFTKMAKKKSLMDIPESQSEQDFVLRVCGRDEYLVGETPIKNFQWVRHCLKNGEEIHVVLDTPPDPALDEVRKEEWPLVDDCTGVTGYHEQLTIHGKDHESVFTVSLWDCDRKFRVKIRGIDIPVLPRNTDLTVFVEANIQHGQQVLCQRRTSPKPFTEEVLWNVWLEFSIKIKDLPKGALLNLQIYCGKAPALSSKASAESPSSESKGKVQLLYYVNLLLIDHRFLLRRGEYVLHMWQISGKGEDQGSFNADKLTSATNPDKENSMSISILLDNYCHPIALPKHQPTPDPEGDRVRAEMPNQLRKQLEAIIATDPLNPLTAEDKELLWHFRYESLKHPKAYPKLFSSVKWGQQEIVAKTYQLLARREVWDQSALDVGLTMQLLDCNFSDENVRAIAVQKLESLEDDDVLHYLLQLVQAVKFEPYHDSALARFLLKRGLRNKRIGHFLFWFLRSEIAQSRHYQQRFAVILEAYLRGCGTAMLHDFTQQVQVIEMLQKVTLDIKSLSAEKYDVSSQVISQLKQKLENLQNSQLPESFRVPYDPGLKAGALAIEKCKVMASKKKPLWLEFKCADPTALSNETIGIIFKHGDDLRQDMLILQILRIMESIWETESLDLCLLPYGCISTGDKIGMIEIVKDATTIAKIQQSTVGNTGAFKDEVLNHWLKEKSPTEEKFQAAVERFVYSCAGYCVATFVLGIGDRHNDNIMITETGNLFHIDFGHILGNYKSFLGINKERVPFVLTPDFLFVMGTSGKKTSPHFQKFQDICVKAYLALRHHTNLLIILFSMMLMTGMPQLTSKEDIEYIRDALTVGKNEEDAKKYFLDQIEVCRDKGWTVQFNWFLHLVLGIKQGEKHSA
Sequence of Phosphatidylinositol 4,5-bisphosphate 3-kinase catalytic subunit alpha isoform (P42336 whole entry, canonical isoform): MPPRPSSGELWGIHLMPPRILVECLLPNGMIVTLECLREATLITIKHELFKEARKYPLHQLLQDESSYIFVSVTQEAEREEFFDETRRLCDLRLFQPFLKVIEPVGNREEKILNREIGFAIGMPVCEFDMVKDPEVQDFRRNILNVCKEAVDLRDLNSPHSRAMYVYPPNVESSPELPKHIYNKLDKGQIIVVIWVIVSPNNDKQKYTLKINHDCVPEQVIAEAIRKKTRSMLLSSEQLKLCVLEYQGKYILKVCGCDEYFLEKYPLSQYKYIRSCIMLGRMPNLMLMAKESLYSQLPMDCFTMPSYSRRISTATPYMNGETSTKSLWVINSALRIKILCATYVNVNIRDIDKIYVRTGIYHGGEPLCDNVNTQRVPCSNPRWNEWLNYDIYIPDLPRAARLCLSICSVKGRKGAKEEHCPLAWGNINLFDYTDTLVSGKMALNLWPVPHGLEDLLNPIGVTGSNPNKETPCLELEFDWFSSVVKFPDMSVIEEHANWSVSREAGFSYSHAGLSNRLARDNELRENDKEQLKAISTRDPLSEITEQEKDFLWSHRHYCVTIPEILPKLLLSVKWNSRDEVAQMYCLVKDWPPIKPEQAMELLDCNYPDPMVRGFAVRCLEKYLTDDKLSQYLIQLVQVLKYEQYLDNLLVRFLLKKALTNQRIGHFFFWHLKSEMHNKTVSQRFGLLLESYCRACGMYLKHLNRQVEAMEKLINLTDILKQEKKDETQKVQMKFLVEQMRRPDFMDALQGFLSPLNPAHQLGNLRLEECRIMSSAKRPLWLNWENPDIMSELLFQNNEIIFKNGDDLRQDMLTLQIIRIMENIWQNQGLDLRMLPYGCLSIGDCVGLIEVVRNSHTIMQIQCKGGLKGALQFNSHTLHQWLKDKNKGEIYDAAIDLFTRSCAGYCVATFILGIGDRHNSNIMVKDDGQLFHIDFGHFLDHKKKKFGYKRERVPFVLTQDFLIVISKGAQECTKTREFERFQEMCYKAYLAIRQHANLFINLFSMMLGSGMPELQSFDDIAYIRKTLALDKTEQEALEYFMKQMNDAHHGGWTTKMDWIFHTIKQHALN

IC50 [1]: 0.009 µM
Compound: CCc1cc(N2CCN(C)CC2)ccc1Nc1ncc(C(F)(F)F)c(NCCCN2CCOCCC2=O)n1 [INLEXISERTIB]

Ki [2]: 0.109 µM
Compound: c1cc(-c2cnn3cc(-c4ccc(OCCN5CCCCC5)cc4)cnc23)ccn1 [DORSOMORPHIN]

IC50 [4]: 0.00091 µM
Compound: Cc1nc(-c2cn3c(n2)-c2ccc(-c4cnn(C(C)(C)C(N)=O)c4)cc2OCC3)n(C(C)C)n1 [TASELISIB]

IC50 [6]: 1.4 µM
Compound: CC(C)NC[C@@H](C(=O)N1CCN(c2ncnc3c2[C@H](C)C[C@H]3O)CC1)c1ccc(Cl)cc1 [IPATASERTIB]

EC50 [3]: 0.8 µM
Compound: N#Cc1c(O)c2c(-c3ccc(-c4ccccc4O)cc3)csc2[nH]c1=O

The remaining lines, values behind:

Compound: N#Cc1c(O)c2c(-c3ccccc3)csc2[nH]c1=O
EC50 [3]: 38 µM

Compound: O=C(Nc1ccc(F)cc1F)[C@H](NC(=S)Nc1cc(C(F)(F)F)cc(C(F)(F)F)c1)c1ccccc1
EC50 [5]: 0.0241 µM

Compound: C=CCN(/C=C1/C(=O)O[C@H](COC)[C@@]2(C)C1=C(O)C(=O)C1=C2[C@H](OC(C)=O)C[C@]2(C)C(=O)CC[C@@H]12)CC=C [SONOLISIB]
IC50 [7]: 0.0029 µM | IC50 [6]: 0.0001 µM | IC50 [4]: 0.001 µM

Compound: COc1ccc([C@H]2OC[C@H]3[C@@H]2CO[C@@H]3c2cc(OC)c(OC)c(OC)c2)cc1OC
IC50 [8]: 0.087 µM
